US20140366440A1, “METHOD FOR PRODUCING CLONE SEEDLINGS” (OKAYAMA PREFECTURE, priority 2009, published 2014)

Test system: E. globulus (Clone C)
Assay: Rooting of shoots with wounded base in rooting medium containing oxidized glutathione
Format: in vivo, Eucalyptus globulus
Settings: Example 16: 50 mg/L in medium
Description: A base of the shoot thus obtained was planted to a foaming phenolic resin porous supporter (Manufactured by Smithers-Oasis Company; Product name: Oasis). […] The base of the shoot was cultured for two months in carbon dioxide gas of 1000 ppm at a temperature of 25° C. under irradiation of red light having photosynthesis photon flux density of 51.3 μmol/m^2/S and having a wavelength component of 650 nm to 670 nm to a wavelength component of 450 nm to 470 nm at a ratio of 8.2:1.8. The culturing was carried out with a culture container, which was a cube container (maximum size of about 10 cm to 11.5 cm in length×10 cm to 11.5 cm in width×10.0 cm in height) having a shape whose bulge was slightly protruded. […] Carbon dioxide gas outside the culture container was allowed to enter the culture container through this carbon dioxide gas permeable membrane covering the opening. Accordingly, carbon dioxide gas concentration inside the culture container was about 1000 ppm due to the permeation of the carbon dioxide gas through the film covering the opening of the culture container. The culture container was irradiated with red light by use of a light irradiation device (Product name: CCFL unit, maker's name: Nippon Medical& Chemical Instruments CO., LTD.). Further, humidity in the culture container is adjusted by sealing the culture container with Parafilm.
Nine shoots were planted per culture container. A rooting rate was calculated from the number of test pieces of the shoot and the number of shoots (the number of rooted shoots) which had been rooted after the foliage was cultured for two months.

oxidized glutathione
Rooting rate (%) (27 test pieces): 96.3% | Number of rooted shoots (of 27 test pieces): 26
